This is an account of results in patent US20250041311A1, “Compound For Treating or Preventing Vimentin-Mediated Diseases” (Aluda Pharmaceuticals, Inc., priority 2021, published 2025).

SMILES strings stand for the structures. Read-outs that look alike come from different tables or passages of the source.

Data set [1] relates to A549, AGS, U87, SMMC-7721, HUH7. Description: Cancer cell growth in vitro. It is filed as cell-based, human. To be noted: any concentration, highest 10 μM.
Description: (§1) Cell culture: Human non-small cell lung cancer A549 cells, human pancreatic cancer PANC-1 cells, human glioma U87 cells, human liver cancer HUH7 cells and SMMC-7721 cells, and human gastric cancer AGS cells were purchased from ATCC or Stem Cell Bank of Chinese Academy of Sciences (Shanghai, China). Cells were cultured in RPMI1640 medium containing 10% fetal bovine serum (Sigma, USA), 100 U penicillin and 100 μg/ml streptomycin (Gibco, USA) at 37° C. in a humidified atmosphere containing 5% CO2.
A further data set concerns A549 cells. Description: Wound healing assay. The data set is classed as cell-based, human. To be noted: different concentrations of C52, 48 h, dose-dependent. The procedure:
Wound healing assay: Cells were seeded in 6-well plates containing complete medium and cultured at 37° C. in a humidified air environment containing 5% CO2. […] […] The wound area and migrated cells within the wound area were photographed using a phase-contrast microscope. The wound area was measured using Image J software.

For the next data set, the system named is DSS-induced colitis mice. Description: DSS-induced colitis mouse model. It is filed as in vivo. To be noted: 3 mg/kg C52 intragastric, 14 days. The procedure: Male BALB/c mice aged 6 to 7 weeks were given 2.8% DSS (Yisheng Biotechnology Co., Ltd., Shanghai) to induce ulcerative colitis through drinking water, and the model was established continuously for 7 days. From the first day of modeling, 3 mg/kg of […] or 300 mg/kg of the positive drug mesalamine (5'-aminosalicylic acid, 5-ASA) was given by intragastric administration, and continued after the modeling 7 days. The model group was given the same volume of solvent every day. The normal control group was fed routinely without any treatment. From the first day of modeling, the animals in each group were weighed every day, and the health condition of the mice, appearance of feces and hematochezia were recorded. When the body weight of the mice lost more than 25% during the modeling process, the animals were euthanized in time. After 14 days of administration of […], mice in each group were sacrificed by vertebral dislocation. The colon was harvested, photographed and its length measured. The colon near the rectum was cut and stored in 4% paraformaldehyde ([…] Biotechnology Co., Ltd., Wuhan) for HE staining to observe the histopathological changes of the colon. Mesenteric lymph nodes were collected for flow cytometric detection of the proportion of Treg cells.

Data set [2] relates to 84 selected human cancer-associated proteins in PANC-1 cells. Conditions: 3 μM C52 or 5 μM C52 for 48 h.
Description: as §1
A total of 200 g of lysate protein was run on one Human XL Tumor Array (R&D Systems, Abingdon, UK). Followed the manufacturer's instructions exactly. The protein chip membrane was covered with plastic film and exposed to X-ray film for 8 minutes. Optical density on exposed X-ray film (hu.q, HQ-320XT, China) was quantified using a transmission mode scanner (EPSON, Beijing, China) and analyzed using Image J software.
The subject of a further data set is HEK293T cells. Description: Liposome-mediated pMAX-GFP transfection (endocytosis and endosomal trafficking). The data set is classed as cell-based.
The subject of another data set is Huh7-NC12 cells. The data set can be described thus: PrestoBlue cell viability of liver cancer cells.

Description for U87 cells: Western blotting: Exosomes from cultures in different conditions were collected and purified by a classical differential centrifugation protocol, and then lysed with PMSF-containing RIPA buffer (Beyond Biotechnology, Shanghai, China). The lysate was centrifuged to remove insoluble material. The concentration of protein was determined by enhanced BCA protein assay kit (Beyontian Biotechnology, Shanghai, China). 40 g of proteins were separated by sodium dodecyl sulfate-polyacrylamide gel electrophoresis (SDS-PAGE) and transferred to a polyvinylidene difluoride membrane (Merck Millipore). Membranes were blocked with 5% milk for 1 h and then incubated with primary antibodies overnight at 4° C. Membranes were washed 3 times and then incubated with secondary antibodies for 1 h at room temperature. Bands were detected by Gel Imaging System (Bio-Rad, USA) and measured by Image J. The primary antibodies used were rabbit anti-β-actin, GAPHD, CD63, CD9, TSG101 and vimentin (Abcam, UK).

By EC50 is commonly meant the concentration needed to bring the measured effect to its halfway point. On to `O=C(Nc1ccc(F)cc1)Nc1ccc(Nc2nc(/C=C/c3ccccc3)nc(N3CCOCC3)n2)cc1` [Compound C52], for which the “effect on the growth of cancer cells” value in data set [1] is “no effect”. Further, in the data set on U87 cells, the “amount of exosomal markers CD9 and CD63 inside the cells” value was “did not reduce”; the “extracellular levels of exosomal markers CD9 and CD63” value is listed as “reduced”. The “CD9 in the cell culture medium” value in the data set with U87 cells (vimentin-knockdown U87 Vim+/- cells, 2 μM C52, 72 h) was “further reduction”. In the data set with A549 cells, the “closure rate of the gap size” value is on record as “significantly decreased”. In addition, in the data set on DSS-induced colitis mice (vs vehicle), the disease activity index result is given as “decreased”, the histological score result was “very significant reduction”, the intestinal bleeding entry is reported as “reduced” and the shortened colon length entry was “marked improvement”. Moreover, the weight loss entry with DSS-induced colitis mice (vs vehicle) is “significantly less”. The “ratio of Treg to CD4+ T cells in the mesenteric lymph nodes” value in the data set on DSS-induced colitis mice (vs vehicle control) is “significantly higher”. The “effect on protein levels of vimentin and other signaling molecules involved in cell proliferation” value in data set [2] is on record as “little or no effect”. The “inhibition of GFP expression (maximum)” value in the data set with HEK293T cells (C52 added 4 h after transfection, at 0.316 μM) is listed as “approximately 40%”. For the same compound, in the data set on HEK293T cells (C52 after transfection, read-out: EC50 for inhibition of endosomal trafficking), the EC50 is 82 nM. The EC50 with HEK293T cells (C52 before transfection, read-out: EC50 for inhibition of endocytosis) amounted to 98 nM. Further, in the data set on HEK293T cells (C52 during entire transfection period, read-out: EC50 for inhibition of the whole process), the concentration for a half-maximal effect (EC50) was 45 nM. The “inhibition of GFP” value with HEK293T cells (C52 just before transfection only, at 0.316 μM) is “approximately 15%”. Further, the “inhibition of GFP (maximum)” value with HEK293T cells (C52 just before transfection only, at 10 μM) is recorded as “approximately 40%”. The “maximum inhibition rate of GFP expression” value with HEK293T cells (C52 present throughout the transfection, at 0.316 μM) is reported as “about 50%”. In the data set with Huh7-NC12 cells (48 h, highest concentration 10,000 nM, high concentrations 3,160 and 10,000 nM), the cytotoxicity entry is recorded as “not cytotoxic”. Further, in the data set on Huh7-NC12 cells (after two days of treatment), the survival rate entry is “about 90%”. Also, the “toxicity to Huh7-NC12 cells” value with Huh7-NC12 cells (high concentrations (>3160 nM)) is reported as “not toxic”.
